# pEC50, pKi: −log10 of the molar value.
# What was measured:
# [1] = biological target: T1, α1β1γδ subtype of nicotinic acetylcholine receptors (Rattus norvegicus, UniProt P18916+P25108+P25109+P25110); assay: Binding assays at α1β1γδ subtype of nicotinic acetylcholine receptors ([3H]-α-bungarotoxin, rat muscle extract)
# T1 construct: Native receptor, no construct: "Triton X100 (2% w/v) was added
# Text: (§1) Methods for evaluating binding capabilities of the compounds at nicotinic acetylcholine receptors are different by subtypes of receptors. Binding capabilities of the compounds at α4β2 nicotinic acetylcholine receptors are examined using rat brain membrane obtained from whole homogenized brain, and determining the inhibiting rate of the compounds against [^3H]-cytisine binding to said brain membrane. Furthermore, the binding capabilities of the compounds at α1β1γδ nicotinic acetylcholine receptors are examined using homogenized rat muscle, and determining the inhibiting rate of the compounds against [^3H]-α-bungarotoxin binding to said muscle homogenate.
# Binding Assays at α1β1γδ Subtype of Nicotinic Acetylcholine Receptors
# Affinity of the compounds of the present invention to α1βγδ subtype of nicotinic acetylcholine receptors was measured by the following method, which was modified method described by Garcha H. S., Thomas P., Spivak C.
# (1) Preparation of Rat Skeletal Muscles Containing α1β1γδ Subtype of Nicotinic Acetylcholine Receptors
# The substantially same animals described in the Biological Experiment 1 were used.
# Isolation of α1β1γδ subtype of nicotinic acetylcholine receptors was performed as follow. That is, rat posterior skeletal muscles were isolated just after sacrificed by decapitation, washed with ice-cooled saline solution and then frozen at −80° C. with liquid nitrogen and stored till using. After thawing the frozen muscles, tissue was homogenized (40% w/v) with buffer solution [2.5 mM of sodium phosphate buffer (pH:7.2), 90 mM of NaCl, 2 mM of KCl, 1 mM of EDTA, 2 mM of benzamidine, 0.1 mM of benzethonium chloride, […], 0.01% of sodium azide] in Waring blender (Waring blender 34BL97; WARING PRODUCTS DIVISION DYNAMICS CORPORATION OF AMERICA) for 60 seconds. The homogenate were centrifuged under 20,000×G for 60 minutes at 4° C. The supernatant was separated and the resulting pellet was added to the same buffer (1.5 ml/g wet weight), and homogenized under the same conditions. Triton X100 (2% w/v) was added and the mixture was stirred for 3 hours at 4° C. The centrifugation at 100,000×G for 60 minutes at 4° C. yielded the rat muscle extract as supernatant. This was stored at 4° C. for up to 4 weeks, and used for binding assays at receptors.
# (2) Experiments of α1β1γδSubtype of Nicotinic Acetylcholine Receptors Binding
# Receptors binding experiments were performed as follow. That is, the extract of rat muscle containing 600-900 μg of protein was added to test tubes containing test compounds and incubated for 15 minutes at 37° C. Then, to this mixture was added 1 nM of [^3H]-α-bungarotoxin (α-Bgt) and further incubated for 2 hours. The samples were isolated by vacuum filtration onto Whatman GF/B filters, which were prerinsed with 0.5% polyethylenimine just prior to sample filtration, using Brandel multi manifold cell harvester. The filters were rapidly rinsed with washing solution (10 mM of KH2PO4, 150 mM of NaCl, pH 7.2, room temperature) (5×1 ml). The filters were counted in 3 ml of clearsol I (Nacalai Tesque Inc.). Determination of nonspecific binding was incubated in the presence of 1 μM α-Bgt.
# In the receptor binding experiments, said buffer solution was added for adjusting the final concentration of BSA to be 0.05%.
# Analyses of the experimental results were conducted by the same way as described in the Biological Experiment 1.
# [2] = biological target: T2, human α4β2 subtype of nicotinic acetylcholine receptors (Homo sapiens, UniProt P17787+P43681); assay: Agonist activities at human α4β2 subtype of nicotinic acetylcholine receptors expressed in Xenopus oocytes (membrane potential holding method); format: cell-based; conditions: for Emax at 100 µM: read-out: Agonist activity: control % by response at 100 μM of the test compound
# T2 construct: expressed in transfected cells; host or cells: Xenopus laevis oocytes injected with 50 ng each of α4 and β2 cRNA (pSP64 polyA vector)
# Experimental: Agonist effect in human α4β2 subtype of nicotinic acetylcholine receptors are examined by using human nicotinic acetylcholine receptors prepared in oocytes of Xenopus laevis, which is injected with cRNA from the corresponding cloning cDNA of human α4 and β2 subunits of nicotinic acetylcholine receptors, and to measure the expression of electric response by adding the test compounds to perfusion solution by means of membrane potential holding method.
# Agonist Activities at Human α4β2 Subtype of Nicotinic Acetylcholine Receptors
# (1) Preparation of cRNA of Human α4β2 Subtype of Nicotinic Acetylcholine Receptors
# Obtained hnACh-R α4 cDNA and hnACh-R β2 cDNA were inserted to the cRNA expression vector (pSP64 polyA) having SP6 RNA promoter to construct hnACh-R α4/pSP64 polyA and hnACh-R β2/pSP64 polyA, respectively. After cutting from expression vector by restriction enzyme (EcoRI), transcription was performed by affecting SP6 RNA polymerase in the presence of cap analogues to obtain hnACh-R α4 cRNA and hnACh-R β2 cRNA, respectively.
# (2) Expression of Human α4β2 Subtype Nicotinic Acetylcholine Receptors in Xenopus oocytes
# Oocytes were purchased from Kitanihonseibutsukyohzai Co., Ltd., which were already enucleated from Xenopus laevis, and used in this experiment.
# The oocytes were treated with collagenase (Sigma type I; 1 mg/ml) in calcium-free modified Birth's solution (88 mM of NaCl, 1 mM of KCl, 2.4 mM of NaHCO3, 0.82 mM of MgSO4, 15 mM of HEPES, pH 7.6) under gently stirring at room temperature for 90 minutes, and washed out the enzyme from the tissue. Then, oocytes were separated from ovarian follicle by tweezers, and isolated oocytes were placed in antibiotics containing modified Birth's solution (88 mM of NaCl, 1 mM of KCl, 2.4 mM of NaHCO3, 0.82 mM of MgSO4, 15 mM of HEPES, pH 7.6, and 0.1 v/v% of mixture solution containing of penicillin and streptomycin for incubation; Sigma Co.). […] In oocytes, heterogeneous quintuple [(α4)2(β2)3] was composed by translation of injected cRNAs, and ion channel receptors were constructed on cell membrane.
# (3) Agonist Activities at Human α4β2 Subtype of Nicotinic Acetylcholine Receptors
# Recordings of response at human α4β2 subtype of nicotinic acetylcholine receptors by means of membrane potential holding method were performed as follow. […] Test compounds were added to the perfusion solution, and recorded the peak strength of induced inward current. In order to normalize the response of test compounds, the response with acetylcholine (Ach) were recorded before and after application of the test compounds. Generally in the oocytes just after isolated, the response of intrinsic muscarinic acetylcholine receptors, which is inward electric current caused by activation of calcium dependence chloride ion channels with increase of the intracellular calcium concentration by stimulation of receptors, is observed. […] Therefore, the responses observed in oocytes with injection of hnACh-R α4 cRNA and hnACh-R β2 cRNA, i.e., the inward current induced by the intracellular influx of sodium ion according to the stimulation of receptors, would be the freshly observed responses of human α4β2 subtype nicotinic acetylcholine receptors.
# [3] = biological target: T3, α4β2 subtype of nicotinic acetylcholine receptors (Rattus norvegicus, UniProt P09483+P12390); assay: Binding assays at α4β2 subtype of nicotinic acetylcholine receptors ([3H]-cytisine, rat brain membrane)
# T3 construct: examined using rat brain membrane obtained from whole homogenized brain; from tissue; host or cells: whole brain of Fischer-344 male rats, membrane pellet
# Text: as §1
# Binding assays at α4β2 Subtype of Nicotinic Acetylcholine Receptors
# (1) Preparation of Rat Brain Membrane Containing α4β2 Subtype of Nicotinic Acetylcholine Receptors
# Rats were housed in the breeding cage controlled of the room temperature at 23±1° C., and the humidity of 55±5% for 1 to 4 weeks. Rats (3 to 4 rats per a cage) were housed with lights on for 12 hours daily (from 7:00 to 19:00), and allowed free access to food and water.
# Preparation of rat brain membrane containing α4β2 subtype of nicotinic acetylcholine receptors was performed as follow. That is, rat brains were isolated just after sacrificed by decapitation, washed with ice-cooled saline solution and then frozen at −80° C. with liquid nitrogen and stored till using. After thawing the frozen brain, the brain was homogenized in 10 volumes of ice-cooled buffer solution (50 mM of Tris-HCl, 120 mM of NaCl, 5 mM of KCl, 1 mM of MgCl2, 2mM of CaCl2; pH 7.4; 4° C.) using homogenizer (HG30, Hitachi Kohki Ltd.) for 30 seconds, and the homogenate were centrifuged under 1,000×G for 10 minutes at 4° C. The resulting supernatant was separated and the pellet was homogenized again with half volume of aforementioned prior buffer solution and centrifuged under the same conditions. Combined supernatant was further centrifuged under 40,000×G for 20 minutes at 4° C. The pellet was suspended in buffer solution and used for binding assays at receptors.
# (2) Experiments of α4β2 Subtype of Nicotinic Acetylcholine Receptors Binding
# Suspensions of membrane pellets containing 400-600 μg of protein were added to test tubes containing test compounds and [^3H]-cytisine (2 nM) in a final volume of 200 μl and incubated for 75 minutes in ice-cooled bath. The samples were isolated by vacuum filtration onto Whatman GF/B filters, which were prerinsed with 0.5% polyethylenimine just prior to sample filtration, using Brandel multi manifold cell harvester. The filters were rapidly washed with buffer solution (3×1 ml). The filters were counted in 3 ml of clearsol I (Nacalai Tesque Inc.).
# Analyses of the experimental results were conducted using the Accufit Competition Program (Beckman Ltd.).
# [4] = read-out: control % of [3H]-α-Bgt binding
# T3 sequence (P09483 31-630): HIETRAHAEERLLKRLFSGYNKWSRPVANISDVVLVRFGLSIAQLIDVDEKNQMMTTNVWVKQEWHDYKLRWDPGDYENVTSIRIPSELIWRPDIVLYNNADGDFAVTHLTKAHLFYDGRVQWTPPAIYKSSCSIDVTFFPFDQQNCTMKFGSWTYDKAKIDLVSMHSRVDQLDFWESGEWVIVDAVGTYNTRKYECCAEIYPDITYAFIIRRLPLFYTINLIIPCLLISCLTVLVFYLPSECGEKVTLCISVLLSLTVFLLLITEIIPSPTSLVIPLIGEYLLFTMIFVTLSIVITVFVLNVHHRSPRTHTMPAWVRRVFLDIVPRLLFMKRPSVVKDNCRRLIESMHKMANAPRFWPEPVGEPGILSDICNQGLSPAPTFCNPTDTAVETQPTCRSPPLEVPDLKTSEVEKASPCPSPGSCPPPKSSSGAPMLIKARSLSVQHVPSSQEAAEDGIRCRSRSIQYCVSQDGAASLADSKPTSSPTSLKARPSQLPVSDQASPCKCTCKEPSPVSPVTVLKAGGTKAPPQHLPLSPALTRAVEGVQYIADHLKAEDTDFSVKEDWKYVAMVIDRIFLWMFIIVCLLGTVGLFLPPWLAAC
# T3 sequence (P12390 25-500): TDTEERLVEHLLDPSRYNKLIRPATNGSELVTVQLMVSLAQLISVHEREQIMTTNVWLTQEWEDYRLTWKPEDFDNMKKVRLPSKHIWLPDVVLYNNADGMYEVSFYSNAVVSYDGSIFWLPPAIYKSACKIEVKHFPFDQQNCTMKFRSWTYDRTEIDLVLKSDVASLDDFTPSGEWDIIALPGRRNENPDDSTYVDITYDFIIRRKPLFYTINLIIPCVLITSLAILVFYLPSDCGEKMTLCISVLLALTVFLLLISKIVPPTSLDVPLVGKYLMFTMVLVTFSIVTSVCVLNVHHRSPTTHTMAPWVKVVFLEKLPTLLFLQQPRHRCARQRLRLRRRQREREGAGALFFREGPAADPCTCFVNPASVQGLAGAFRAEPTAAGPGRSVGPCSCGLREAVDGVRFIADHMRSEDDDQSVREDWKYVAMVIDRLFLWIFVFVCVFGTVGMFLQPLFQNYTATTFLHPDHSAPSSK
# T2 sequence (P43681 29-627 limits assumed): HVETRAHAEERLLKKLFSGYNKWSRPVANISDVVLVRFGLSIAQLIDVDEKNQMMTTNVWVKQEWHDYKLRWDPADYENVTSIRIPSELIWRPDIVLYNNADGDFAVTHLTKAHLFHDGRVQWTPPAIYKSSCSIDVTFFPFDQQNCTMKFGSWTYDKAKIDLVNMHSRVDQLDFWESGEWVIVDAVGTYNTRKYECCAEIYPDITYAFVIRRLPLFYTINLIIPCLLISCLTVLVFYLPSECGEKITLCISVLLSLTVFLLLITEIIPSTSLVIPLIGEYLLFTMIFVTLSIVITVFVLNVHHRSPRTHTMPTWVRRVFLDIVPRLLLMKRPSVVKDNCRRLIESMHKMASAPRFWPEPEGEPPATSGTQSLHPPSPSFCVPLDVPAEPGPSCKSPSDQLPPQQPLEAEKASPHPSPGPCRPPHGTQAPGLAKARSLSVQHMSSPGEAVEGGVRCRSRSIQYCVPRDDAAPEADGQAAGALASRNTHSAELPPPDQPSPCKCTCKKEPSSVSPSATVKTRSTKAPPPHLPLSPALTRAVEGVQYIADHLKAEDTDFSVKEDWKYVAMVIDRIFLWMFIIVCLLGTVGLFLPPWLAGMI
# T2 sequence (P17787 26-502): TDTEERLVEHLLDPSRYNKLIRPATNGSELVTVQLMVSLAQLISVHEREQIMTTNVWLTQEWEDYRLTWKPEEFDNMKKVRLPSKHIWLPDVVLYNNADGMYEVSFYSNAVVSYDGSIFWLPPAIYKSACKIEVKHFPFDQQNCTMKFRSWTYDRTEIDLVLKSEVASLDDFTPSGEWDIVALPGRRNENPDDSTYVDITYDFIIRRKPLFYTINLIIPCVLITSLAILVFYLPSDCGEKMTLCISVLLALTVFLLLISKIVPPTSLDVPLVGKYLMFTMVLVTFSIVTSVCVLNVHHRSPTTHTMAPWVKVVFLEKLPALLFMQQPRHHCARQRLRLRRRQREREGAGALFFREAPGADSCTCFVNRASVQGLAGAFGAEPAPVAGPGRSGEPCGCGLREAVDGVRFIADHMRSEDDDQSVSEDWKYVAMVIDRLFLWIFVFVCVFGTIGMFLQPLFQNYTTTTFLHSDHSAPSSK
# T1 sequence (P25108 21-457): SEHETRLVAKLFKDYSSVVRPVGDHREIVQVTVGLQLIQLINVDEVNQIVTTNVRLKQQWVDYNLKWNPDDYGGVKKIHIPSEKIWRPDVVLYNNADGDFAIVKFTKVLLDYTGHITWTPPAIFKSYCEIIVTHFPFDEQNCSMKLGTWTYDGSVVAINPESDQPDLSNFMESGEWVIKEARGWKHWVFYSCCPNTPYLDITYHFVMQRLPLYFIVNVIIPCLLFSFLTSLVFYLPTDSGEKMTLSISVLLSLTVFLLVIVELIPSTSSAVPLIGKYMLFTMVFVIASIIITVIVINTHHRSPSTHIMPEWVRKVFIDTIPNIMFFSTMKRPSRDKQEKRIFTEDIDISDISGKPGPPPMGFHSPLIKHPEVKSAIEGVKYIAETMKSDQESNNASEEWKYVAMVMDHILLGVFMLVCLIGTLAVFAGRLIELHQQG
# T1 sequence (P25110 22-517): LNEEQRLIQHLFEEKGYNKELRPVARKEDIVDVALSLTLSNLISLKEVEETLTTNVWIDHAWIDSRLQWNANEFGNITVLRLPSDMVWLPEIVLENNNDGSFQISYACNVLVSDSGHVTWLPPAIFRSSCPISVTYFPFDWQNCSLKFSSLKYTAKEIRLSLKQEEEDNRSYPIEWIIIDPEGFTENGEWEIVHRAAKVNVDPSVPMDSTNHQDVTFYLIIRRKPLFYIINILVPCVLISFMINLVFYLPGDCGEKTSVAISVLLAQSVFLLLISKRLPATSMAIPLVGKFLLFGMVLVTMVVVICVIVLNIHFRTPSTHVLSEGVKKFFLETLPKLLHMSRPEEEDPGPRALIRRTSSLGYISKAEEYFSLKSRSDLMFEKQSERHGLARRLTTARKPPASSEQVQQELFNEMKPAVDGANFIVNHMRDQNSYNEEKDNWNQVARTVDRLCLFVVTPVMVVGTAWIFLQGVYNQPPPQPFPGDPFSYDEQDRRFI
# T1 sequence (P25109 24-501): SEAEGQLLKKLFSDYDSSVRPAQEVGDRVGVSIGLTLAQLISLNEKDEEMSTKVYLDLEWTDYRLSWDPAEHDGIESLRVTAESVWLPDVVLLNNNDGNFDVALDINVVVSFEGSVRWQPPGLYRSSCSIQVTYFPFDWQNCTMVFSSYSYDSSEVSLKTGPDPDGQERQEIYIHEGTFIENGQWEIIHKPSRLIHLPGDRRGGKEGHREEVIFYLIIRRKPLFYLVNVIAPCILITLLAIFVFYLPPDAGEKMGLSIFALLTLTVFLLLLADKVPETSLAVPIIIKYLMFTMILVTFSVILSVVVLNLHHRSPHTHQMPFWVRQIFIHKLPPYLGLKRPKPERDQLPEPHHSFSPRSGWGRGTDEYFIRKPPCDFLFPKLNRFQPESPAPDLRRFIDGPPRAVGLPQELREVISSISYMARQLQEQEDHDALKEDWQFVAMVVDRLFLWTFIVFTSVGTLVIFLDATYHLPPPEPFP
SMILES,pKi [1],Emax at 100 µM [2] [%],pKi [3],"remaining activity at 100 µM [1, 4] [%]","remaining activity at 1000 µM [1, 4] [%]",pEC50 [2]
"N=c1sccn1Cc1cccnc1 [Compound 1, 2-imino-3-(3-pyridyl)methyl-2,3-dihydrothiazole]",5.31,20,8.32,–,–,–
"N=c1ccc(Cl)nn1Cc1ccc(Cl)nc1 [Compound 6, 6-chloro-2-(6-chloro-3-pyridyl)methyl-3-imino-2,3-dihydropyridazine]",–,–,7.82,44,15,4.07
"N=c1sccn1Cc1ccc([N+](=O)[O-])cc1 [Compound 62, 2-imino-3-(4-nitrobenzyl)-2,3-dihydrothiazole]",4.10,–,7.54,–,–,3.49
"Cc1csc(=N)n1Cc1ccc(Br)nc1 [Compound 19, 3-(6-bromo-3-pyridyl)methyl-2-imino-4-methyl-2,3-dihydrothiazole]",4.93,3,7.98,–,–,–
"NC1=NCCCN1Cc1ccc(Cl)nc1 [Compound 29, 1-(6-Chloro-3-pyridyl)methyl-2-imino-1,2,3,4,5,6-hexahydropyrimidine]",5.15,–,9.60,–,–,6.30
"Nc1nccn1Cc1c[nH]c2ncccc12 [Compound 59, 2-amino-i-(7-aza-3-indolyl)methylimidazole]",2.91,21,7.30,–,–,–
"N=c1sccn1Cc1ccc(Cl)cc1 [Compound 57, 3-(4-chlorobenzyl)-2-imino-2,3-dihydrothiazole]",4.89,23,7.92,–,–,–
"Nc1nccn1Cc1cnc(Cl)s1 [Compound 50, 2-amino-1-(2-chloro-5-thiazolyl)methylimidazole]",3.09,–,7.57,–,–,4.03
"N=C1OCCN1Cc1ccc(Cl)nc1 [Compound 28, 3-(6-chloro-3-pyridyl)methyl-2-iminooxazolidine]",4.40,–,8.56,–,–,4.81

# — US20020028809A1 (SUNTORY LIMITED, priority 1999, published 2002)
